In ChEMBL document CHEMBL1201862, “PubChem BioAssay data set” (2004):
Blank lines part the entries; values can stand above or below the molecule they belong to. Activity calls are given as the source filed them.

Key:
[1] = molecular target: DNA damage-inducible transcript 3 protein (Mus musculus, UniProt P35639); type: functional, Cricetulus griseus
X-box-binding protein 1 = molecular target: T1, X-box-binding protein 1 (Homo sapiens, UniProt P17861); type: functional, Cricetulus griseus;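 also: confirmatory dose-response counter-screen serving a CHOP assay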
T1 sequence (P17861 whole entry): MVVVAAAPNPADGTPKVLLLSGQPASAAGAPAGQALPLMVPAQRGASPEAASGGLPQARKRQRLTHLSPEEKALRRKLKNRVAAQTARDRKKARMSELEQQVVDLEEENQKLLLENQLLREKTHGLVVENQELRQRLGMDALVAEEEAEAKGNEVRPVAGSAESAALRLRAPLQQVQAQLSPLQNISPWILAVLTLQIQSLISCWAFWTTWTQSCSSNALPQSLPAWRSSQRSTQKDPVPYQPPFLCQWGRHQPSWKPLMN

[2] = molecular target: Endoplasmic reticulum aminopeptidase 1 (Homo sapiens, UniProt Q9NZ08); test: inhibition of human ERAP1 enzyme activity – biochemical, cherry-pick, set 2, plate reader, dose response (AID 743314)
[3] = molecular target: Eukaryotic translation initiation factor 4E (Mus musculus, UniProt P63073); test: blockers of eIF4G binding by eIF4E – biochemical, TR-FRET, dose response (AID 855); type: functional;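 also: potency for disrupting eIF4E binding to eIF4GI seen as loss of FRET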
[4] = viability loss in human Jurkat cells – cell-based, luminescence, cytotoxicity control for P. falciparum gametocyte viability project, dose response (AID 1117277); type: functional;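 also: potency reflects loss of cellular ATP meaning fewer viable cells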
[5] = viability inhibitors of stage V gametocytes – luminescence, dose response (AID 1117278); type: functional, cell-based;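 also: gametocytes exposed to compound for 24 hours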
[6] = viability loss in THP-1 monocytes – THP-1 cells, cytotoxicity control for Vif-APOBEC3G degradation inhibitor project, dose response (AID 1117359); type: functional; conditions: THP-1
Protein Tat = molecular target: T2, Protein Tat (Human immunodeficiency virus type 1 group M subtype B (isolate HXB2)(HIV-1), UniProt P04608); type: functional;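 also: tat binding to TAR RNA read out by fluorescence polarization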
T2 sequence (P04608 whole entry): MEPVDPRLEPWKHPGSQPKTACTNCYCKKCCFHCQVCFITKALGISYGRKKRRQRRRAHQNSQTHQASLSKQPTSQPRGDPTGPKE

[7] = HIV-1 Vif–A3G interaction blockers – biochemical, TR-FRET, GST-Vif 1-94, biotin-A3G peptide, dose response retest, primary screen (AID 1117319); type: functional;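 also: TR-FRET signal of purified GST-Vif binding a biotinylated A3G peptide; inhibitors lower the FRET signal by blocking Vif and A3G binding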
HeLa = test: viability loss in HeLa cells – cell-based, 24 h, cherry-picked samples, cytotoxicity control, dose response (AID 504726); type: functional; conditions: Homo sapiens;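 also: potency for cytotoxicity as loss of luminescence signal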
Estrogen receptor = molecular target: T3, Estrogen receptor (Homo sapiens, UniProt P03372);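 also: potency for inhibiting coactivator peptide recruitment to the receptor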
T3 sequence (P03372 whole entry): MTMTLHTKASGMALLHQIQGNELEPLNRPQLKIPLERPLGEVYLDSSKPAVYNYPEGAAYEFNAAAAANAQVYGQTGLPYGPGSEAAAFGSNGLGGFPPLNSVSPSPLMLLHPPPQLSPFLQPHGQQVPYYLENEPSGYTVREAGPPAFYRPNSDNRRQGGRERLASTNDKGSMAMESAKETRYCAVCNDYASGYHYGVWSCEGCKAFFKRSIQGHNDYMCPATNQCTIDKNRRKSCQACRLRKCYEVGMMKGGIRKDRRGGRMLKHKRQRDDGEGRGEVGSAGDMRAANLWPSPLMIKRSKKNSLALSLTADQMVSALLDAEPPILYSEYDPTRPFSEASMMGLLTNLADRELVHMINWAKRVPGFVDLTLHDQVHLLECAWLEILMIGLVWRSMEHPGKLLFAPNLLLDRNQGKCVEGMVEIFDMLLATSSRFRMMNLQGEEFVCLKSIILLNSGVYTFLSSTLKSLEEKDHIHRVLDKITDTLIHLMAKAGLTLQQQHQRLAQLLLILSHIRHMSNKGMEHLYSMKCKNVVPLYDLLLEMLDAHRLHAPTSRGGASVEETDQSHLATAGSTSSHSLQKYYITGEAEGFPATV

Leucine aminopeptidase = molecular target: T4, Leucine aminopeptidase (Plasmodium falciparum 3D7, UniProt Q8IL11); test: P. falciparum M17LAP inhibitors, primary screen, biochemical, fluorogenic H-Leu-NHMec substrate, 1536-well (AID 1619); type: functional
T4 sequence (Q8IL11 whole entry): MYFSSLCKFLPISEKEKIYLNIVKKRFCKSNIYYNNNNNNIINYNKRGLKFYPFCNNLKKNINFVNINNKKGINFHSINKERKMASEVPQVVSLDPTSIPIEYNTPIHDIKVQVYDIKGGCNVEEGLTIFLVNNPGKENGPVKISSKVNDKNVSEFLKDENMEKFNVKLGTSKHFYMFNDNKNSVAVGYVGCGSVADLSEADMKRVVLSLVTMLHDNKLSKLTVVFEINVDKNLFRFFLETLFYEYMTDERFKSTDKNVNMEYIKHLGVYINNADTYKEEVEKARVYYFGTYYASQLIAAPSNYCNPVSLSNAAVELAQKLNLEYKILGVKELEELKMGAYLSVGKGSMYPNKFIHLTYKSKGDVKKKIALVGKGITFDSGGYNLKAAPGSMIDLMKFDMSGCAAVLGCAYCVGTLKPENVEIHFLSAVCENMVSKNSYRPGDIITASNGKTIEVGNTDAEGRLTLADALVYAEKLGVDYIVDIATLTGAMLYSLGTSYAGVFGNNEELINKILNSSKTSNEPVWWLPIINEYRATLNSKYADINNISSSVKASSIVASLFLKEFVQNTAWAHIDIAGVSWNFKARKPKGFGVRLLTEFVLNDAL

Cytochrome P450 2C9 = Cytochrome P450 2C9 (Homo sapiens, UniProt P11712)
Cytochrome P450 1A2 = molecular target: T5, Cytochrome P450 1A2 (Homo sapiens, UniProt P05177);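 also: PubChem cytochrome P450 panel assay, CYP1A2 panel member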
T5 sequence (P05177 whole entry): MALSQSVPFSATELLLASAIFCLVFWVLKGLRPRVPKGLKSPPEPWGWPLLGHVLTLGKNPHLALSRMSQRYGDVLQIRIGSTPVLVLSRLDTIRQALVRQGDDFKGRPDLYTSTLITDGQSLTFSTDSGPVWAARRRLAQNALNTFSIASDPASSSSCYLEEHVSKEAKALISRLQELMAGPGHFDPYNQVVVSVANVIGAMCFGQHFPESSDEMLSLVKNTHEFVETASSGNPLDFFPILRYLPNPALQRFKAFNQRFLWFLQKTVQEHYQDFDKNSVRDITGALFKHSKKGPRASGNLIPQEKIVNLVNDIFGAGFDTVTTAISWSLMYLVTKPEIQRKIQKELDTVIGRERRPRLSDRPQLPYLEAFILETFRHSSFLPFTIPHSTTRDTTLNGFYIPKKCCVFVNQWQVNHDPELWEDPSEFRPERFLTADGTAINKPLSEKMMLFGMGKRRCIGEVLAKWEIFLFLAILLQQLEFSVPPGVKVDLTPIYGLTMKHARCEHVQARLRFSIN

Cytochrome P450 3A4 = Cytochrome P450 3A4 (Homo sapiens, UniProt P08684);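 also: CYP3A4 tested as one member of a cytochrome P450 panel screen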
[8] = molecular target: T6, DNA repair and recombination protein RAD54-like (Homo sapiens, UniProt Q92698); test: RAD54 Holliday junction migration blockers – biochemical, fluorescence, cherry-picked samples, dose series, confirmation (AID 651657); type: functional
T6 sequence (Q92698 whole entry): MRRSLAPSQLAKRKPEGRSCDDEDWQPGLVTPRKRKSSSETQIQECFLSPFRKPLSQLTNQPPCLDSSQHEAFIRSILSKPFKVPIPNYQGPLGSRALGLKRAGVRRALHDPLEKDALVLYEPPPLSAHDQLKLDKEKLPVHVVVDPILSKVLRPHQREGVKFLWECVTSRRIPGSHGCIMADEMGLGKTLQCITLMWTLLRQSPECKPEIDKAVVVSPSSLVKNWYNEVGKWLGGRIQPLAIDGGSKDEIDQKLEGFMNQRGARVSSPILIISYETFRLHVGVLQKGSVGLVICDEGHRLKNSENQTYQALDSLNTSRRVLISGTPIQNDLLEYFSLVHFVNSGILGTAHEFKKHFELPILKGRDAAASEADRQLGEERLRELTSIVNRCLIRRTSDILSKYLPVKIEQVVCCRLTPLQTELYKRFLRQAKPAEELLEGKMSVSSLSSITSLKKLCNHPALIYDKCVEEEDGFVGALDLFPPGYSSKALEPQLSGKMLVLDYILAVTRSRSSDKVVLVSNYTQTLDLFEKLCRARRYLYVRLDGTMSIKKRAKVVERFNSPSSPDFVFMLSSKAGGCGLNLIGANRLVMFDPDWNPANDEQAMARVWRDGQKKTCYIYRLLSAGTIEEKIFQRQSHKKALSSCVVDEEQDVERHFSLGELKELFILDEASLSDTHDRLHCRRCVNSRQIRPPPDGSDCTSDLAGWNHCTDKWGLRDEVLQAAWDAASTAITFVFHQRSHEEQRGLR

[9] = molecular target: Induced myeloid leukemia cell differentiation protein Mcl-1 (Homo sapiens, UniProt Q07820); type: functional
[10] = molecular target: T7, Heat shock factor protein 1 (Mus musculus, UniProt P38532); test: decrease of HSF1-responsive luciferase luminescence – cell-based, NIH3T3, dose retest, confirmation (AID 2382); type: functional;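 also: NIH3T3 fibroblasts with HSF1-driven luciferase reporter stressed by proteasome inhibitor MG132; luminescence from HSF1-driven luciferase expression after 8 hours of MG132 stress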
T7 sequence (P38532 whole entry): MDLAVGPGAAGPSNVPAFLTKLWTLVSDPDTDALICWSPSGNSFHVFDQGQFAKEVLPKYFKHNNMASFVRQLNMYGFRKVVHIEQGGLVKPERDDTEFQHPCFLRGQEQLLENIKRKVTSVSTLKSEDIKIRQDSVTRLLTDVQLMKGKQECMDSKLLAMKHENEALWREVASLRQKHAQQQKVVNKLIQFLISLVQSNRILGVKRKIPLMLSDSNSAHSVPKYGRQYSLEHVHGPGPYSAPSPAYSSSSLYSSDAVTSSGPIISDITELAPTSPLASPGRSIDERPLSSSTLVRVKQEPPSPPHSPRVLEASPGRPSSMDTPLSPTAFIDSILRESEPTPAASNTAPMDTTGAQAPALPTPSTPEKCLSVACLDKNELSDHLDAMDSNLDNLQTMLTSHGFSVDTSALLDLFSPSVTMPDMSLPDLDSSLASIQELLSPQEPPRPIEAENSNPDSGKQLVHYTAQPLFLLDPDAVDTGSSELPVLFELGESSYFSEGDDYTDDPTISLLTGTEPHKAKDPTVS

HEK293 = test: EBV LMP1 TES2 canonical NF-kB signalling blockers – cell-based, HEK293, luciferase, cherry-pick, dose response (AID 588343); type: functional; conditions: Homo sapiens

Chain of Endoplasmic reticulum aminopeptidase 1 (Q9NZ08 whole entry): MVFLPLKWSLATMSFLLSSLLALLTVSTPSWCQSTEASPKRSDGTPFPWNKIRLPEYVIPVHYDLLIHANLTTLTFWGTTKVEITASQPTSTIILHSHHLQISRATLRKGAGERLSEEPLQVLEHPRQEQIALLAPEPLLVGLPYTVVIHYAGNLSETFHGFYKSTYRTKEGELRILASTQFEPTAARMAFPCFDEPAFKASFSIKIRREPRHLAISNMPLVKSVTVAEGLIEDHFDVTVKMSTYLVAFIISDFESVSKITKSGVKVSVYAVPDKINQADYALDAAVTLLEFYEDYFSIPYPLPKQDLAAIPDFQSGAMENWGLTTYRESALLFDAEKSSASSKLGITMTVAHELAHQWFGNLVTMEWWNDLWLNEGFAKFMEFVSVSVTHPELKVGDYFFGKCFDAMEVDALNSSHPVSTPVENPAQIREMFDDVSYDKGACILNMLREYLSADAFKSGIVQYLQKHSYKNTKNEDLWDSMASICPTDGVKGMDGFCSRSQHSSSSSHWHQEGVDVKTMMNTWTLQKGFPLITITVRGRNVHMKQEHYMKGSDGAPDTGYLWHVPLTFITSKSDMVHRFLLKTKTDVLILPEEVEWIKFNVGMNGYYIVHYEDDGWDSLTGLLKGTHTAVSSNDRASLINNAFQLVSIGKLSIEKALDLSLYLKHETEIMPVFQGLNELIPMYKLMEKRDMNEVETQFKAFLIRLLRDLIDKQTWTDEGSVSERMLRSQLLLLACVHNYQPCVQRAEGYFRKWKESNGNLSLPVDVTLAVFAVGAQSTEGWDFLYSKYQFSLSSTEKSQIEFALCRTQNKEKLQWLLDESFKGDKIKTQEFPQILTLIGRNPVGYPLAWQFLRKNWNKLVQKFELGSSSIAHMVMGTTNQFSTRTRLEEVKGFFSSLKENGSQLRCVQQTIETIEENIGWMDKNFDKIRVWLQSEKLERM
Chain of DNA damage-inducible transcript 3 protein (P35639 whole entry): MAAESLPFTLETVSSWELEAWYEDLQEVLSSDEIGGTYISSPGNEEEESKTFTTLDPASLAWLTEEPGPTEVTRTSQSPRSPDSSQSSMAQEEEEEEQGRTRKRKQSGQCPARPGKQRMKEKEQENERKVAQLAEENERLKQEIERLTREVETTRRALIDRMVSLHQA
Chain of Eukaryotic translation initiation factor 4E (P63073 whole entry): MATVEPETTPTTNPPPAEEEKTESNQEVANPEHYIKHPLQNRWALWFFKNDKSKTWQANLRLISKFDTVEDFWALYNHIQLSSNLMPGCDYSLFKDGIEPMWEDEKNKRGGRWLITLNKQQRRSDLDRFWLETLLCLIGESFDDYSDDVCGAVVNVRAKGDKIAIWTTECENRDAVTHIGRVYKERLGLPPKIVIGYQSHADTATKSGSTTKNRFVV
Chain of Cytochrome P450 3A4 (P08684 whole entry): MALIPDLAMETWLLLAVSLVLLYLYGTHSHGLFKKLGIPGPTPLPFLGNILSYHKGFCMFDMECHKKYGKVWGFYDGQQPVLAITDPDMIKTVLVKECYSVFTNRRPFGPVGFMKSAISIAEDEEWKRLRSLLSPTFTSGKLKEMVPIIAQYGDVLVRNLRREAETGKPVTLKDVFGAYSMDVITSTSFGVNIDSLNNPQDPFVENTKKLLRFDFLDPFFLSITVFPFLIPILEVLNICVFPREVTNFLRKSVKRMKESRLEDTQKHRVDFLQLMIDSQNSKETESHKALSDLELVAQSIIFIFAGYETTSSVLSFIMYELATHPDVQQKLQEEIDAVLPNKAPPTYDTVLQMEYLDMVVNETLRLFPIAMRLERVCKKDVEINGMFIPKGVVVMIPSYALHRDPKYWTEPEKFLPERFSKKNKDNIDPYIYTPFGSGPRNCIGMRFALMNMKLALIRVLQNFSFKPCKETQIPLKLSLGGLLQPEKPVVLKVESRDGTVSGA
Chain of Cytochrome P450 2C9 (P11712 whole entry): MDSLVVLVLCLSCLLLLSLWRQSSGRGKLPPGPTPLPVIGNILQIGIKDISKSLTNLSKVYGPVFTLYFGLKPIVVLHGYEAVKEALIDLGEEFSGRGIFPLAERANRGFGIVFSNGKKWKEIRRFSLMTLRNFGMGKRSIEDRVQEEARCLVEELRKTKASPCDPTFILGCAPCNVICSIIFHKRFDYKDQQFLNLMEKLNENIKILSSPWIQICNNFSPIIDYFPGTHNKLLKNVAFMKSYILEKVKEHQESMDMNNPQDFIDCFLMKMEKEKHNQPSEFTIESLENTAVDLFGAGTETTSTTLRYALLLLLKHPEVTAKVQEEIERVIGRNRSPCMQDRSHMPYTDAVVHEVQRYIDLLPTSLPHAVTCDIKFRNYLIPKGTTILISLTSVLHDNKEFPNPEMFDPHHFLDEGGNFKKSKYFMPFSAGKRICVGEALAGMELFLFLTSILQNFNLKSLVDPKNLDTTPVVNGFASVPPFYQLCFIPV
Chain of Induced myeloid leukemia cell differentiation protein Mcl-1 (Q07820 whole entry): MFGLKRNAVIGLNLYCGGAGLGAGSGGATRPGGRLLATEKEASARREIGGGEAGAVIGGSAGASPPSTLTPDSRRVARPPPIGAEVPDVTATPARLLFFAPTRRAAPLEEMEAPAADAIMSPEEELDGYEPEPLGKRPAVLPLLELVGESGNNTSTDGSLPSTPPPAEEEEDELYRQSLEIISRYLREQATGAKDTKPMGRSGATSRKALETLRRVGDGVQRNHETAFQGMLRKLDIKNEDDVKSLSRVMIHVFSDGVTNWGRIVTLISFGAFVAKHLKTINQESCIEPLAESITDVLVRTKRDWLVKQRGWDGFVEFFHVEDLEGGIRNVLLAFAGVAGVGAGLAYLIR

Absolute IC50 (XBP1) (X-box-binding protein 1): 10 µM
SMILES: Cc1cc(NC(=O)CSc2nc3cc4c(cc3c(=O)n2CCc2ccccc2)OCO4)no1
Absolute IC50 (CHOP) [1]: 10 µM

AC50 [2]: 7.87 µM (active)
SMILES: CCCc1cc(=O)oc2c(CN3CCN(C)CC3)c(O)ccc12

IC50 [3]: > 64 µM (inactive)
SMILES: CCOc1cc(C2c3c(C)n[nH]c3C(=O)N2c2ccc(C)cc2)ccc1O (stereo not given)

AC50 [2]: 8.13 µM (active)
SMILES: CC(=O)N1[C@@H]2Cn3c(ccc(/C=C/c4ccccc4)c3=O)[C@H]1[C@@H](C(=O)NCC1CC1)[C@@H]2CO

SMILES: Cc1ccc(S(=O)(=O)N2CCN(C(=O)CCC(=O)NCCc3ccc(F)cc3)CC2)cc1
IC50 [4]: > 83.3 µM (inactive)
IC50 [5]: > 109 µM (inactive)

IC50 (Protein Tat): > 100 µM (active)
IC50 [7]: > 100 µM (active)
SMILES: S=C(Nc1ccc2c(c1)OCCO2)Nc1ccc2c(c1)OCO2
CC50 [6]: > 40 µM (active)

SMILES: Cc1cc(S(=O)(=O)NC2CCN(Cc3ccccc3)CC2)c(C)cc1Cl
AC50 (HeLa): 52.3 µM (active)

IC50 (Estrogen receptor): 37.9 µM (not active)
SMILES: CCCn1nc(C(=O)OCC(=O)c2ccc3c(c2)NC(=O)CO3)c2ccccc2c1=O

IC50 (Leucine aminopeptidase): 38.8 µM (active)
AC50 (Cytochrome P450 2C9): 3.16 µM (inconclusive)
AC50 (Cytochrome P450 1A2): 0.00316 µM (inconclusive)
AC50 (Cytochrome P450 3A4): 3.98 µM (inconclusive)
SMILES: O=C(O)c1ccccc1-c1ccccc1C(=O)Nc1ccc2c(c1)[nH]c(=O)c1ccccc12

SMILES: COc1cccc(OCCNc2ccc([N+](=O)[O-])cn2)c1
AC50 (HeLa): 49.3 µM (active)

SMILES: Cc1c(N)cc(S(=O)(=O)O)cc1NC(=O)c1cccc([N+](=O)[O-])c1
AC50 (HeLa): 56.4 µM (active)

Absolute IC50 (XBP1) (X-box-binding protein 1): 10 µM
SMILES: CC(C)=CCc1c(O)c(CC=C(C)C)c2c(c1O)C(=O)CC(c1ccc(O)cc1)O2 (stereo not given)

IC50 [7]: > 100 µM (active)
SMILES: CCCn1c(O)nnc1SCC(=O)c1cc(C)ccc1C

AC50 [2]: 8.8 µM (active)
SMILES: Cc1cc(=O)oc2cc(NS(=O)(=O)c3ccc(F)cc3)ccc12

IC50 [7]: > 100 µM (active)
SMILES: COc1ccc(N(CC(=O)NCc2ccccc2C)S(=O)(=O)c2ccc(C)cc2)cc1OC

IC50 [7]: > 100 µM (active)
SMILES: COc1ccc(CN2C(=O)c3ccccc3C2C(=O)NCc2cccnc2)c(OC)c1 (stereo not given)

Absolute IC50 (XBP1) (X-box-binding protein 1): < 10 µM
SMILES: Cc1ccc(NCC(=O)N/N=C/c2cccc(Oc3ccccc3)c2)cc1
Absolute IC50 (CHOP) [1]: 10 µM

SMILES: Cc1ccc(OCC(=O)O/N=C(\N)Cc2ccc([N+](=O)[O-])cc2)cc1C
AC50 (HeLa): > 350 µM (inactive)

IC50 [3]: > 64 µM (inactive)
SMILES: CC1CCN(C(=S)c2ccccc2O)CC1

SMILES: COCCn1cnc2c1c(=O)n(CC(=O)Nc1cc(C)on1)c(=O)n2Cc1ccccc1
IC50 [4]: > 83.3 µM (inactive)
IC50 [5]: > 109 µM (inactive)

AC50 [8]: 20.2 µM (active)
SMILES: O=C1c2cccc3cccc(c23)C(=O)N1CCCn1ccnc1

IC50 (Estrogen receptor): 13.9 µM (active)
IC50 [9]: 4.61 µM (active)
SMILES: Cc1ccc(/C=c2\sc3nc(-c4ccco4)nn3c2=O)o1

IC50 (Protein Tat): > 100 µM (active)
SMILES: COCCCNC(=O)c1cccn2c(=O)c3cc4ccccc4cc3nc12

IC50 (Leucine aminopeptidase): 31.8 µM (active)
SMILES: Cc1ccc(OCc2ccc(C(=O)O)o2)c([N+](=O)[O-])c1

Absolute IC50 (XBP1) (X-box-binding protein 1): 10 µM
EC50 [10]: > 195 µM (not active)
SMILES: O=C(COC(=O)Cc1c(Cl)cccc1Cl)Nc1ccc(OC(F)(F)F)cc1

SMILES: O=C(Nc1ccc2c(c1)nc1n2CCSC1)c1ccco1
IC50 (Estrogen receptor): 14.5 µM (active)
AC50 (HEK293): 3.52 µM (active)

SMILES: CCOc1ccc(S(=O)(=O)N2CCCC2)cc1
IC50 [4]: > 83.3 µM (inactive)
IC50 [5]: > 109 µM (inactive)
